Earlier results as cited in US12653891B2, “Stable glucocorticoid formulation” (AVM Biotechnology, LLC, priority 2018, dated 2026).
Structures can show the parent of a compound that is named as a salt. Where two headings read alike, the source gives them in different places.

Assays:
[1] = not given; remark: listed apart in the source

Threshold (EMA/CHMP/334655/2013) (5 years up to 17 years and adults) [mg/kg]	Threshold (EMA/CHMP/334655/2013) (29 days up to 4 years) [mg/kg]	Threshold (EMA/CHMP/334655/2013) (neonates up to 28 days) [mg/kg]	Solubility in alcohol ([1]; alcohol)	Solubility in chloroform and ether ([1]; chloroform and ether)	Solubility in dioxan ([1]; dioxan)	Compound	Amount that can accumulate and cause lactic acidosis, CNS depression, coma, hypoglycemia, seizures, hemolysis (IV) [g/day]
500	50	1				CC(O)CO (stereo not shown) [Propylene glycol]	≥ 3
			slightly soluble	practically insoluble	very slightly soluble	C[C@@H]1C[C@H]2[C@@H]3CCC4=CC(=O)C=C[C@]4(C)[C@@]3(F)[C@@H](O)C[C@]2(C)[C@@]1(O)C(=O)COP(=O)(O)O [Dexamethasone phosphate (as sodium), 9-fluoro-11b,17,21-trihydroxy-16a-methylpregna-1,4-diene-3,20-dione 21-(dihydrogen phosphate) Disodium Salt]	
